{
  "source": "patent US8937065B2",
  "about": "“Compositions and methods for modulating a kinase” (Clevexel Pharma, priority 2011, dated 2015)",
  "key": {"[1]": {"system": "IL-2-stimulated STAT5 activity in CTLL-2 cells", "test": "IL-2-stimulated STAT5 activity in CTLL-2 cells (Irf1-bla CTLL-2)", "assay_type": "cell-based", "details": "Mus musculus, mCTLL-2, IL-2 stimulated, read-out: IC50 T cells mechanism-based: mCTLL-2 IL-2 Stimulated STAT5 activity", "description": "Mechanism-based inhibition assays using compound 7A (Table 1) were performed using GeneBLAzer® Technology (Invitrogen Corporation), according to manufacturer specifications. Briefly, GeneBLAzer® Technology uses a mammalian-optimized Beta-lactamase reporter gene (bla) combined with a FRET-enabled substrate to provide reliable and sensitive detection in intact cells. Cells were loaded with an engineered fluorescent substrate containing two fluorophores, coumarin and fluorescein. Without bla expression, the substrate molecule remains intact. In this state, excitation of the coumarin results in fluorescence resonance energy transfer to the fluorescein moiety and emission of green light. […] Excitation of the coumarin in the presence of Beta-lactamase activity results in a blue fluorescence signal. […]\nAn activator assay screen was run to obtain the EC80 concentration of the known activator to add in step 3. • 1. […] 4 μL of the EC80 concentration of activator, as determined in an Activator assay, was added to all wells containing compound and known inhibitor to bring the final assay volume to 40 μL. • 4. […] The assay plate was read on a fluorescence plate reader (Tecan Safire) and the data is analyzed. […]\nIrf1-bla CTLL-2 cells were thawed and prepared as described above for the Activator Screen. […] The plate was read on a fluorescence plate reader."}, "[2]": {"system": "JAK2 pathway, TF-1 cells", "test": "JAK2/STAT5-irf1-bla TF1 screen", "details": "Homo sapiens, read-out: IC50 Cell-based selectivity: JAK2 pathway TF-1 cells", "description": "Mechanism-based inhibition assays using compound 7A (Table 1) were performed using GeneBLAzer® Technology (Invitrogen Corporation), according to manufacturer specifications. Briefly, GeneBLAzer® Technology uses a mammalian-optimized Beta-lactamase reporter gene (bla) combined with a FRET-enabled substrate to provide reliable and sensitive detection in intact cells. Cells were loaded with an engineered fluorescent substrate containing two fluorophores, coumarin and fluorescein. Without bla expression, the substrate molecule remains intact. In this state, excitation of the coumarin results in fluorescence resonance energy transfer to the fluorescein moiety and emission of green light. But when bla is expressed, the substrate is cleaved, the fluorophores are separated, and energy transfer is disrupted. Excitation of the coumarin in the presence of Beta-lactamase activity results in a blue fluorescence signal. […]\nGeneral Activator Assay Protocol • 1. […] The assay, plate was read on a fluorescence plate reader (Tecan Safire^2) and the data is analyzed.\nirf1-bla TF1 cells were thawed and resuspended in Assay Media (OPTI-MEM, 0.5% dialyzed FBS, 0.1 mM NEAA, 1 mM Sodium Pyruvate, 100 U/mL/100 μg/mL Pen/Strep) to a concentration of 1,562,500 cells/mL. […] The plate is read on a fluorescence plate reader."}, "[3]": {"system": "RS4; 11 cells", "test": "Proliferation of RS4; 11 cells (Cell Titer-Glo)", "details": "Homo sapiens, B cells, outcome-based, read-out: IC50 Proliferation RS4, 11 cells (ALL)", "description": "Growth inhibitory activity against the human tumor cell lines, RS4; 11 and Daudi was determined using Promega's Cell Titer-Glo® assay. The human tumor cells were placed in a 96-well microculture plate (Costar white, flat bottom #3917) in a total volume of 90 μL/well. After 24 hours of incubation in a humidified incubator at 37° C. with 5% CO2 and 95% air, […] serially diluted test agents in growth medium were added to each well. After 96 total hours of culture in a CO2 incubator, the plated cells and Cell Titer-Glo® (Promega # G7571) reagents were brought to room temperature to equilibrate for 30 minutes. 100 μL of Cell Titer-Glo® reagent was added to each well. The plate was shaken for 2 minutes and then left to equilibrate for 10 minutes before reading luminescence on the Tecan GENios microplate reader.\nPercent inhibition of cell growth was calculated relative to untreated control wells. All tests were performed in duplicate at each concentration level. The IC50 value for the test agents was estimated using Prism 3.03 by curve-fitting the data using the following four parameter-logistic equation: […]"}, "[4]": {"system": "CYP", "test": "CYP inhibition", "assay_type": "in vitro ADME"}},
  "data": [
    {"smiles": "O=C(CN1CCOCC1)Nc1cccc(-c2nc(-c3c[nH]c(C(=O)N4CCCC4)c3)cs2)c1", "note": "[7A, 2-morpholino-N-(3-(4-(5-(pyrrolidine-1-carbonyl)-1H-pyrrol-3-yl)thiazol-2-yl)phenyl)acetamide]", "values": [
      {"measurement": "IC50", "setting": "[1]", "result": 6.2, "unit": "µM"},
      {"measurement": "IC50", "setting": "[2]", "result": 49.5, "unit": "µM"},
      {"measurement": "IC50", "setting": "[3]", "result": 0.5, "unit": "µM"},
      {"measurement": "CYP inhibition", "setting": "[4]", "result": ">10"}
    ]}
  ]
}
